We go through 3 compounds from paper PMC6650409, “Modeling the binding of diverse ligands within the Ah receptor ligand binding domain” (Scientific Reports, 2019).

One test concerns Q377A mutant AhR. Set-up: method as in PMID 17223691. Conditions: mutation of Q377 to alanine; cited from earlier work.
The next test concerns the target T1, L302A mutant AhR (Mus musculus, UniProt P30561, L302A).
T1 construct: made in house; host or cells: in vitro transcription/translation (rabbit reticulocyte lysate)
T1 sequence (P30561 10-848 L302A): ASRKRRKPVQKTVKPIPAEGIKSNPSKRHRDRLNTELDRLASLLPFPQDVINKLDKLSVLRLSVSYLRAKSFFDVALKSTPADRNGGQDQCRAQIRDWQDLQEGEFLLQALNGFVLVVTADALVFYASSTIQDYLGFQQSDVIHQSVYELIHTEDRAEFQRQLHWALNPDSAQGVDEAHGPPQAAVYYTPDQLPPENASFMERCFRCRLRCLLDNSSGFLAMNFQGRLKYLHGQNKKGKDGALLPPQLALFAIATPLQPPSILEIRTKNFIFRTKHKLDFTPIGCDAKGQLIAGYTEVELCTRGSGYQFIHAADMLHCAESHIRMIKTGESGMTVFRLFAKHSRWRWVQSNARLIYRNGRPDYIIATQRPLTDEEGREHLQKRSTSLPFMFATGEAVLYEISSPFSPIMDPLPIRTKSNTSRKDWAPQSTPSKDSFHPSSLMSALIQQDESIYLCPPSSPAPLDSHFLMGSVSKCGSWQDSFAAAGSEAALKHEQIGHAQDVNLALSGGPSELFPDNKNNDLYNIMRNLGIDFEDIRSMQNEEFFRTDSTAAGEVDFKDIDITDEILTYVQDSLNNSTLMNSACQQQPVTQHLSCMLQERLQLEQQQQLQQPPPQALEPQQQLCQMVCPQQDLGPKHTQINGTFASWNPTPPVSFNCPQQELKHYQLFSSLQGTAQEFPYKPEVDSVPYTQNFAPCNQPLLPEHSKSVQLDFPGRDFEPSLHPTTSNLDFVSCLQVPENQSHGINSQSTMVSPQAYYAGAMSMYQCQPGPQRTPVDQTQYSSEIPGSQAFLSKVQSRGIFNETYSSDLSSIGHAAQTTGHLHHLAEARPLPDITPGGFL
The arrangement: method as in PMID 21981577. Conditions: L302A mutation; cited from earlier work.

A further test addresses T2, S359A mutant AhR (Mus musculus, UniProt P30561, S359A).
T2 construct: made in house; host or cells: in vitro, Promega TNT Quick rabbit reticulocyte lysate
T2 sequence (P30561 10-848 S359A): T1 sequence (P30561 10-848 L302A) with A293L, S350A
Kind of test: [3H]TCDD competitive ligand binding, S359A mutant AhR. Particulars: for pIC50: Table S6, AhR mutant S359A. The method, then:
The mouse AhR (mAhR) and ARNT (mARNT) expression plasmids, mβAhR/pcDNA3 and mβArnt/pcDNA3, have been previously described. Point mutations of mβAhR/pcDNA3 were carried out using the QuikChange Lightning Mutagenesis Kit (Agilent Technologies) and all constructs were verified by sequencing.
[^3H]TCDD specific binding to wild-type or mutant mAhRs synthesized in vitro using the Promega TNT Quick coupled transcription/translation rabbit reticulocyte lysate kit (Madison, WI) was carried out as previously described. [^3H]TCDD specific binding was determined by subtracting the amount of [^3H]TCDD bound to unprogrammed lysate (nonspecific binding) from the total amount of [^3H]TCDD binding to lysate containing in vitro expressed AhR. The amount of [^3H]TCDD specific binding remaining in the presence of the indicated competitor chemical was expressed as a percent of the total [^3H]TCDD specific binding. The relative binding affinity (IC50) of each chemical was determined from concentration-dependent competitive inhibition curves obtained using [^3H]TCDD and increasing concentrations of each test chemical and the mean IC50 value was determined using three-parameter non-linear regression.

Structures are written as SMILES. Numbering of substitutions follows the chain as printed. pIC50: −log10 of the molar value.

`Clc1cc2c(cc1Cl)Oc1cc(Cl)c(Cl)cc1O2` [TCDD, 2,3,7,8-tetrachlorodibenzo-p-dioxin]: the TCDD specific binding result in the test on Q377A mutant AhR is given as “abolish”. Further, at L302A mutant AhR, the TCDD binding activity result is “dramatically reduced”.

With `O=Cc1c2[nH]c3ccccc3c2cc2[nH]c3ccccc3c12` [FICZ, 6-formylindolo[3,2-b]carbazole], the “change of relative binding affinity versus wild-type AhR” value on S359A mutant AhR (S359A substitution, in words) is “decreased binding”. On S359A mutant AhR, this compound had a pIC50 of 8.39.

Compound `O=c1cc(-c2ccccc2)oc2ccc3ccccc3c12` [BNF] showed a pIC50 at S359A mutant AhR of 7.33.

One may read the pIC50 as −log10 of the IC50, conventionally taken in molar units.
